Reference: US20090012179A1, “Use of Tyrphostins to Stimulate Neurite Outgrowth” (priority 2004, published 2009)
Entries after “also recorded” stand apart in the source; their conditions may differ.

Tests used:
ERK [1] = assay: ERK activation in NS20Y neuroblastoma cells, immunoblotting for dually phosphorylated ERK; assay type: cell-based, mouse; details: dually phosphorylated ERK by immunoblotting
ERK1 (p44) = ERK1 (p44) activation in NS20Y cells; assay type: cell-based, mouse
Description: (§1) Cell stimulation, immunoblotting, and immunoprecipitation: Cells or neurons are grown in 6-well or 12-well plates to 80-90% confluence. The cells are starved in serum-free DMEM overnight, and then incubated with receptor agonists at 37° C. for the indicated durations. In some experiments, signaling inhibitors are added 45 minutes before simulation. Incubation is terminated by placing the tissue culture cluster on ice and rapidly aspirating the medium, followed by the addition of ice-cold RIPA^+ buffer (50 mM Tris-HCl, pH 7.5, 150 mM NaCl, 1% NP-40, 0.5% deoxycholate, 0.1% SDS, 1 mM NaVO3, and protease inhibitor (Calbiochem, San Diego, Calif.)) and incubation for 15 minutes with shaking. After centrifugation (14,000×g at 4° C. for 15 minutes), the supernatant is collected and the protein concentration is measured and adjusted using RIPA^+ buffer. Samples (30 μl) with equal amounts of protein mixed with Laemmli loading buffer are denatured at 70° C. for 10 minutes and separated by SDS-PAGE. […] The proteins are transferred to PVDF membrane (Millipore), detected with the primary antibodies (including anti-active ERK; anti-p-Tyr clone 4G10, Upstate; anti-TH; anti-DAT, sigma, anti-β-tubulin, etc.) and visualized with the SuperSignal™ West Pico chemiluminescent kit (Pierce Biotechnology, Rockford, Ill.). The intensity of bands is quantified using ImageQuant™ 5.2 (Amersham). […]

ERK2 (p42) = ERK2 (p42) activation in NS20Y cells; assay type: cell-based, mouse
Description: as §1

SH-SY5Y cells = assay: Neurite length in NGF-treated SH-SY5Y neuroblastoma cells; assay type: cell-based, human; details: 96 and 168 hours; for Neurite length / neurite elongation: SH-SY5Y + NGF 10 ng/ml, FK506 100 nM, A9 10 nM, 100 nM and 1 μM
Description: Analysis of neurite length in SH-SY5Y neuroblastoma cells: SH-SY5Y neuroblastoma cells develop axonal-like processes on treatment with NGF. For analysis of process length, cells (20 fields/well) are randomly photographed at 96 and 168 hours. Neurite lengths are measured on photographic prints using a Houston Instrument HI-PAD digitizing tablet connected to a computer with appropriate software (Bioquant IV); only processes more than twice the cell body length are measured. Data from identically treated wells are combined. […] Histograms are compared using a Mann-Whitney U test (α=0.05), which makes no assumptions about the shape of the distribution.
As disclosed herein, high and sustained ERK activation induces neurite growth in […] neuroblastoma cells and protects neuronal cells from neurotoxins. To test this, SH-SY5Y human neuroblastoma cells were used, which can be induced into neuron-like phenotype by NGF treatment. This is an established method for measuring neurite growth-promoting activity in vitro in Dr. Gold's lab (Gold et al., Neurosignals. 13:122-129, 2004; Gold et al., Exp. Neurol. 147:269-278, 1997). […] Representative micrographs at 168 hours for vehicle (control), NGF (10 ng/ml), and NGF (10 ng/ml) plus A9 (100 nM) are shown in FIG. 5B.

[2] = system: primary dopaminergic neuron cultures; assay: Neuroprotection against MPP+ in primary dopaminergic neuron cultures; assay type: cell-based, rat; details: MPP+ 25 μM; A9 added before or after MPP+; TH staining
Description: Primary cultures of rat embryonic SNc neuron cultures were grown on treated 12-well plates (for dopamine uptake) or coverslips (for neuroprotection) for 10 days as described in the Examples section. In FIG. 6A, the neurons were treated with different concentrations of A9 for 6 days before dopamine uptake was measured. Data=mean±SD (n=3). In FIG. […] Half of the medium was changed with fresh A9 on day 14. The neurons were fixed on day 16 and stained for tyrosine hydroxylase (TH, green) and total-ERK (red). Images were captured with fluorescence microscopy at magnification×100.
The dopaminergic neurons that have been cultured on poly-D-lysine treated coverslips or 12-well cell culture plates for 10 days are treated with vehicle or A9 at 1 nM, 10 nM, 100 nM, or 1 μM for 7 days. […] Half of the medium is changed with fresh medium containing A9 at day 4. To test the involvement of ERK and PI3K, inhibitors (including PD98059, SL327, wortmannin, and LY294002) are added with A9. […] The amount of HSV used and the best time to do functional assays is determined. To count the TH-positive neurons, the neurons on coverslips are fixed, stained for both tyrosine hydroxylase (TH) and total-ERK (control) at the end of A9 treatment and imaged with a conventional or confocal fluorescence microscope. […]

[3] = Stability of A9 in solution; assay type: physicochemical
Description: 5. Physical properties: A9 stock can be dissolved in ethanol, methylene chloride, or DMSO as high as 25 mg/ml. The stock of A9 can then be diluted in water or saline. The final concentration in saline can reach 10 mg/ml according to our experience. A9 is very stable in organic solvents and keeps its activity (indicated by its ability to stimulate ERK activation in NS20Y cells, data not shown) for 6 months at room temperature. […] In saline, its half-life was reported to be 4 days at 37° C. (Golumb, Atherosclerosis 125:171-182, 1996). […] A similar evaluation of the chemical nature of any tyrphostin can be used to determine if it is of use to induce neurite outgrowth and regeneration in a subject.

ERK [4] = assay: ERK activation in the brain; assay type: in vivo; details: observation, no data shown

## CC(C)(C)c1cc(C=C(C#N)C#N)cc(C(C)(C)C)c1O [A9, tyrphostin A9]
ERK [1]
  ERK activation: robust activation of ERK; also recorded: stimulated ERK activation in NS20Y cells in a time (FIG. 2A) and dose (FIG. 2B)-dependent manner; also recorded: induced robust and sustained ERK activation
ERK [1]; listed as tyrphostin A9
  ERK activation: stimulated robust and sustained ERK activation in a time and dose-dependent manner
ERK1 (p44)
  ERK1 (p44) activation: activated ERK1 (p44) the most
ERK2 (p42)
  ERK2 (p42) stimulation: little stimulation on ERK2 (p42); also recorded: little effect on ERK2
SH-SY5Y cells
  Neurite length / neurite elongation: dramatically increased in length
SH-SY5Y cells; listed as tyrphostin A9
  Neurite length / neurite elongation: stimulated neurite elongation
SH-SY5Y cells; SH-SY5Y
  Distribution of neurite length (cumulative histograms), shift to the right versus NGF-treated: more pronounced
[2]
  Protective effect against neurotoxin MPP+: robust protective effect; also recorded: neuroprotection against MPP^+
[3]; in organic solvents
  Effect of repeated freeze/thaw cycles on activity: do not affect its activity
[3]; room temperature, activity by ERK activation in NS20Y cells
  Time for which activity is kept in organic solvents: 6 months
ERK [4]
  ERK activation in the brain: can cause ERK activation in the brain
